Assay results: ChEMBL document CHEMBL5352476, “A comprehensive overview of Artemisinin and its derivatives as anticancer agents” (Eur J Med Chem, 2023)

What was measured:
[1] = test system: RPMI-7951; assay: Antiproliferative activity against human RPMI-7951 cells assessed as inhibition of cell growth incubated for 24 hrs by MTT assay; type: functional, cell-based; conditions: RPMI-7951, 24 h
[2] = test system: HepG2; assay: Antiproliferative activity against human HepG2 cells assessed as inhibition of cell growth by MTT assay; type: functional, cell-based
[3] = test system: NCI-H460; assay: Antiproliferative activity against human NCI-H460 cells assessed as inhibition of cell growth incubated for 72 hrs by MTT assay; type: functional, cell-based; conditions: NCI-H460, 72 h
[4] = test system: HT-29; assay: Antiproliferative activity against human HT-29 cells assessed as inhibition of cell growth incubated for 72 hrs by MTT assay; type: functional, cell-based; conditions: HT-29, 72 h
[5] = test system: HeLa; assay: Antiproliferative activity against human HeLa cells assessed as inhibition of cell growth incubated for 72 hrs by MTT assay; type: functional, cell-based
[6] = test system: MDA-MB-231; assay: Antiproliferative activity against human MDA-MB-231 cells assessed as inhibition of cell growth incubated for 72 hrs by MTT assay; type: functional, cell-based; conditions: MDA-MB-231, 72 h
[7] = test system: SK-BR-3; assay: Antiproliferative activity against human SK-BR-3 cells assessed as inhibition of cell growth incubated for 48 hrs by MTT assay; type: functional, cell-based; conditions: SK-BR-3, 48 h
[8] = test system: HEK-293T; assay: Antiproliferative activity against HEK293T cells assessed as inhibition of cell growth incubated for 48 hrs by MTT assay; type: functional, cell-based; conditions: Homo sapiens
[9] = Selectivity index, ratio of IC50 for antiproliferative activity against HEK293T cells to IC50 for antiproliferative activity against human HepG2 cells; type: toxicity, cell-based; conditions: HEK293T cells versus HepG2 cells, read-out: Ratio IC50
[10] = test system: HepG2; assay: Potency index, ratio of vincristine IC50 to test compound IC50 for antiproliferative activity against human HepG2 cells assessed as inhibition of cell growth incubated for 48 hrs by MTT assay; type: functional
[11] = test system: SK-OV-3; assay: Antiproliferative activity against human SK-OV-3 cells assessed as inhibition of cell growth incubated for 48 hrs by MTT assay; type: functional, cell-based; conditions: SK-OV-3, 48 h
[12] = test system: HepG2; assay: Antiproliferative activity against human HepG2 cells assessed as inhibition of cell growth incubated for 48 hrs by MTT assay; type: functional, cell-based; conditions: HepG2, 48 h
[13] = test system: Calu-1; assay: Antiproliferative activity against human Calu-1 cells assessed as inhibition of cell growth incubated for 48 hrs by MTT assay; type: functional, cell-based; conditions: Calu-1, 48 h
[14] = test system: 786-0; assay: Antiproliferative activity against human 786-0 cells assessed as inhibition of cell growth incubated for 48 hrs by MTT assay; type: functional, cell-based; conditions: 786-0, 48 h
[15] = test system: HT-29; assay: Antiproliferative activity against human HT-29 cells assessed as inhibition of cell growth incubated for 96 hrs by MTT assay; type: functional, cell-based; conditions: HT-29, 96 h
[16] = test system: HT-29; assay: Antiproliferative activity against human HT-29 cells overexpressing carbonic anhydrase IX assessed as inhibition of cell growth incubated for 96 hrs under hypoxic condition by MTT assay; type: functional, cell-based; conditions: HT-29, 96 h
[17] = Cytotoxicity against human MCF-10A cells assessed as inhibition of cell growth incubated for 96 hrs by MTT assay; type: toxicity, cell-based
[18] = test system: MDA-MB-231; assay: Antiproliferative activity against human MDA-MB-231 cells assessed as inhibition of cell growth incubated for 96 hrs by MTT assay; type: functional, cell-based; conditions: MDA-MB-231, 96 h
[19] = Cytotoxicity against human CCD 19Lu cells assessed as inhibition of cell growth; type: toxicity, cell-based
[20] = test system: Mus musculus; assay: Antitumor activity against human RL95-2 cells xenografted in BALB/c nude mouse assessed as tumor growth inhibition rate at 5.0 mg/kg, ip administered three times a week for 4 weeks relative to control; type: functional; conditions: RL95-2, 672 h
[21] = test system: RL95-2; assay: Antiproliferative activity against human RL95-2 cells assessed as inhibition of cell growth by MTT assay; type: functional, cell-based; conditions: pooled result: one value given for 6 cell lines, strains, targets or settings
[22] = Cytotoxicity against human WI-38 cells assessed as inhibition of cell growth incubated for 72 hrs by MTT assay; type: toxicity, cell-based
[23] = test system: HL-60; assay: Antiproliferative activity against human HL-60 cells assessed as inhibition of cell growth incubated for 72 hrs by MTT assay; type: functional, cell-based; conditions: HL-60, 72 h
[24] = test system: U-87 MG; assay: Antiproliferative activity against human U-87 MG cells assessed as inhibition of cell growth incubated for 72 hrs by MTT assay; type: functional, cell-based, U-87MG ATCC
[25] = test system: A549; assay: Antiproliferative activity against human A549 cells assessed as inhibition of cell growth incubated for 72 hrs by MTT assay; type: functional, cell-based; conditions: A549, 72 h

Compound: C[C@H]1[C@H](OC(=O)CCC(=O)NCCc2ccc(OC(=O)CCC(=O)O[C@@H]3O[C@@H]4O[C@@]5(C)CC[C@H]6[C@H](C)CC[C@@H]([C@H]3C)[C@@]46OO5)cc2)O[C@@H]2O[C@@]3(C)CC[C@H]4[C@H](C)CC[C@@H]1[C@@]24OO3
- IC50 [1]: 2.45 µM

Compound: CCCCCCCCNC(=O)C[C@H]1O[C@@H]2O[C@@]3(C)CC[C@H]4[C@H](C)CC[C@@H]([C@H]1C)[C@@]24OO3
- IC50 [2]: 9.5 µM

Compound: CCCCCCCCCCCCOC(=O)C[C@H]1O[C@@H]2O[C@@]3(C)CC[C@H]4[C@H](C)CC[C@@H]([C@H]1C)[C@@]24OO3
- IC50 [2]: 0.72 µM

Compound: CCCCCCCCCCCCNC(=O)C[C@H]1O[C@@H]2O[C@@]3(C)CC[C@H]4[C@H](C)CC[C@@H]([C@H]1C)[C@@]24OO3
- IC50 [2]: 1.2 µM

Compound: C[C@@H]1CC[C@H]2[C@@H](C)C(=O)O[C@@H]3O[C@@]4(C)CC[C@@H]1[C@]32OO4 [ARTEMISININ]
- IC50 [2]: 97 µM

Compound: COc1ccc(OC)c(/C=C/C(=O)c2ccc(OCC(=O)N[C@H]3O[C@@H]4O[C@@]5(C)CC[C@H]6[C@H](C)CC[C@@H]([C@H]3C)[C@@]46OO5)cc2)c1
- IC50 [3]: 0.12 µM
- IC50 [4]: 0.12 µM
- IC50 [5]: 0.12 µM
- IC50 [6]: 0.12 µM

Compound: C[C@H]1[C@H](N2CCN(P(=O)(OCc3cncs3)N(CCCCl)CCCCl)CC2)O[C@@H]2O[C@@]3(C)CC[C@H]4[C@H](C)CC[C@@H]1[C@@]24OO3 (some centres not stated)
- IC50 [7]: 12.5 µM
- IC50 [8]: 12.5 µM
- selectivity ratio [9]: 16
- Ratio IC50 [10]: 7.4
- IC50 [11]: 12.5 µM
- IC50 [12]: 12.5 µM
- IC50 [13]: 12.5 µM
- IC50 [14]: 12.5 µM

Compound: C[C@H]1[C@@H](OCCc2cn(-c3ccc(S(N)(=O)=O)cc3)nn2)O[C@@H]2O[C@@]3(C)CC[C@H]4[C@H](C)CC[C@@H]1[C@@]24OO3
- IC50 [15]: 1.92 µM
- IC50 [16]: 0.65 µM
- IC50 at 96 h [17]: 78 µM
- IC50 [18]: 1.92 µM

Compound: CCCCCCCCCCCCCCNC(=O)C[C@H]1O[C@@H]2O[C@@]3(C)CC[C@H]4[C@H](C)CC[C@@H]([C@H]1C)[C@@]24OO3
- IC50 [19]: 0.46 µM

Compound: C[C@H]1[C@@H](OCCNCCO[C@H]2O[C@@H]3O[C@@]4(C)CC[C@H]5[C@H](C)CC[C@@H]([C@H]2C)[C@@]35OO4)O[C@@H]2O[C@@]3(C)CC[C@H]4[C@H](C)CC[C@@H]1[C@@]24OO3
- inhibition in vivo at 5 mg/kg [20]: 49.9%
- IC50 [21]: 1.16 µM

Compound: CCCCCCCCCCCC[C@@H](O)C[C@H]1O[C@@H]2O[C@@]3(C)CC[C@H]4[C@H](C)CC[C@@H]([C@H]1C)[C@@]24OO3
- IC50 [2]: 4.4 µM

Compound: C[C@@H]1CC[C@H]2[C@@H](C)C(OCCOc3ccc(/C=C/S(=O)(=O)Nc4ccc(OC(F)(F)F)cc4)cc3)O[C@@H]3O[C@@]4(C)CC[C@@H]1[C@]32OO4 (some centres not stated)
- IC50 at 72 h [22]: 0.05 µM
- IC50 [3]: 0.05 µM
- IC50 [23]: 0.05 µM
- IC50 [4]: 0.05 µM
- IC50 [24]: 0.05 µM
- IC50 [25]: 0.05 µM
- IC50 [6]: 0.05 µM
